The source of these data is patent US8158560B2, “Insecticidal arylpyrroline compounds” (Bayer CropScience AG, priority 2009, dated 2012).

Common to all, as to type: in vivo
For test [1], the system named is Spodoptera litura. Nature of the test: Biological Test Example 1: test against tobacco cutworm (Spodoptera litura) larvae, sweet potato leaf dip. The settings on record: foliar, 168 h, active compound concentration 100 ppm, third instar larvae, after 7 days, read-out: insecticidal activity. As to the method: (§1) Unless not mentioned otherwise, the test solutions were prepared as follows:
(§2) Containing as solvent: Dimethylformamide, 3 parts by weight; and as emulsifier: Polyoxyethylene alkyl phenyl ether, 1 part by weight
(§3) To prepare the test solution, 1 part by weight of an active compound is mixed with the above-mentioned amount of solvent containing the above-mentioned amount of emulsifier, and the mixture is diluted with water to the desired concentration.
Test Against Tobacco Cutworm (Spodoptera litura) Larvae
Leaves of sweet potato were immersed in the test solution at the appropriate concentration, and the leaves were dried in air. The leaves were then placed in a petri dish having a diameter of 9 cm, and ten Spodoptera litura at third instar larvae were released therein. The petri dishes were placed in a temperature-controlled chamber at 25° C.
After 2 days and 4 days more sweet potato leaves were added. After 7 days, the number of dead larvae was counted and the insecticidal activity was calculated. An insecticidal activity of 100% means that all larvae were killed, whereas an insecticidal activity of 0% means that no larva was killed. In the current test, the results of two petri dishes for each treatment were averaged.

For test [2], the system named is Aulacophora femoralis. The test can be described thus: Biological Test Example 3: test against cucurbit leaf beetle (Aulacophora femoralis), cucumber leaf dip. The settings on record: foliar, 168 h, active compound concentration 100 ppm, second instar larvae, after 7 days, read-out: insecticidal activity. The method, then:
as §1, §2, §3
Test Against Cucurbit Leaf Beetle (Aulacophora femoralis)
Leaves of cucumber were immersed in the test solution at the appropriate concentration, and the leaves were dried in air. The leaves were then put in a plastic cup containing sterilized black soil and five Aulacophora femoralis at second instar larvae were released in the cup. The cups were placed in a temperature-controlled chamber at 25° C. After 7 days, the number of dead larvae was counted, and the insecticidal activity was calculated. An insecticidal activity of 100% means that all larvae were killed, whereas an insecticidal activity of 0% means that no larva was killed.

Test [3] relates to organic phosphorus agent- and carbamate agent-resistant Myzus persicae. The test can be described thus: Biological Test Example 4: test against organic phosphorus agent- and carbamate agent-resistant green peach aphid (Myzus persicae), spray on eggplant. Particulars: active compound concentration 100 ppm; after 7 days. As to the method:
as §1, §2, §3
Test Against Organic Phosphorus Agent- and Carbamate Agent Resistant Green Peach Aphid (Myzus persicae)
50 to 100 head of organic phosphorous agent- and carbamate agent-resistant Myzus persicae were inoculated to leaves of eggplant at two-leaf stage, planted in a pot of 6 cm in diameter. After one day, test solution at the appropriate concentration was sprayed thereon in a sufficient amount using a spray gun. After the spraying, the plant pot was placed inside a greenhouse, and after 7 days, the insecticidal rate was calculated.
An insecticidal activity of 100% means that all aphids were killed, whereas an insecticidal activity of 0% means that no aphid was killed.

Test [4] concerns Tetranychus urticae. Nature of the test: Biological Test Example 2: test against two-spotted spider mite (Tetranychus urticae), spray on kidney bean. The settings on record: 168 h, active compound concentration 100 ppm, adult mites, after 7 days, read-out: acaricidal activity. The method, then: as §1, §2, §3
Test Against Two-Spotted Spider Mite (Tetranvchus urticae)
50 to 100 adult mites of Tetranychus urticae were inoculated to leaves of kidney bean at two-leaf stage planted in a pot of 6 cm in diameter. After one day, test solution at the appropriate concentration was sprayed thereon in a sufficient amount using a spray gun. After the spraying, the plant pot was placed inside a greenhouse, and after 7 days, the acaricidal activity was calculated. An acaricidal activity of 100% means that all mites were killed, whereas an acaricidal activity of 0% means that no mite was killed.

Test [5] relates to Spodoptera litura L2 stage. The test can be described thus: Spodoptera litura root soaking test (PRODLI). The settings on record: 20 ppm, 4 dat. As to the method:
Spodoptera litura—Root Soaking Test (PRODLI)
Insect: Spodoptera litura L2 stage;
Material: Culture media bottles for hydroponics: Plastic (A-PET) cups for test, square type;
Plant: Broccoli 5 leaf stage (ca. 12 cm high), soil around the roots was washed off just before the test;
Solvent pre-mixture “Sorpol SD” for root soaking test;
Sorpol SD: Sorpol BDB:Dimethylformamide=3:3:140
Procedure: Test solutions are prepared in the bottles at the appropriate concentration. The test plant root is dipped into the test solution in the bottle and kept in a test room. After 3 days, ⅓ part of the leaves of the plants is cut and put into the A-PET cup.
Into each test cup five larvae L2 are released, the cup is covered with a lid and stored at 25° C. and at a relative humidity of 50-60% and under 16L8D lighting conditions.
After the specified period of time the mortality in % is determined and the rate of death is calculated.

Consider `O=C(NC1CSC1)c1ccc(C2=NCC(c3cc(Cl)c(Cl)c(Cl)c3)(C(F)(F)F)C2)cc1Br` (centres unmarked) [Compound 1-4, 2-Bromo-N-(thietan-3-yl)-4-[3-(3,4,5-trichlorophenyl)-3-(trifluoromethyl)-3,4-dihydro-2H-pyrrol-5-yl]benzamide], for which the pest or weed control at 100 ppm in test [1] and in test [2] was 100% in each case.

With `O=C(NC1CSC1)c1ccc(C2=NCC(c3cc(Cl)c(Cl)c(Cl)c3)(C(F)(F)F)C2)cc1C(F)(F)F` (centres unmarked) [Compound 1-7, N-(thietan-3-yl)-4-[3-(3,4,5-trichlorophenyl)-3-(trifluoromethyl)-3,4-dihydro-2H-pyrrol-5-yl]-2-(trifluoromethyl)benzamide], the pest or weed control at 100 ppm in test [1], in test [2] and in test [4] was 100% throughout. In test [3], this compound displayed an insecticidal activity of 100%.

Consider `O=C(NC1C[S+]([O-])C1)c1ccc(C2=NCC(c3cc(Cl)c(Cl)c(Cl)c3)(C(F)(F)F)C2)cc1C(F)(F)F` (centres unmarked) [Compound 1-8, N-(1-Oxidothietan-3-yl)-4-[3-(3,4,5-trichlorophenyl)-3-(trifluoromethyl)-3,4-dihydro-2H-pyrrol-5-yl]-2-(trifluoromethyl)benzamide], for which the pest or weed control at 100 ppm in test [1], in test [2] and in test [4] was 100% each time.

`O=C(NC1CS(=O)(=O)C1)c1ccc(C2=NCC(c3cc(Cl)c(Cl)c(Cl)c3)(C(F)(F)F)C2)cc1C(F)(F)F` (centres unmarked) [Compound 1-9, N-(1,1-Dioxidothietan-3-yl)-4-[3-(3,4,5-trichlorophenyl)-3-(trifluoromethyl)-3,4-dihydro-2H-pyrrol-5-yl]-2-(trifluoromethyl)benzamide]: the pest or weed control at 100 ppm in test [1], in test [2] and in test [4] was 100% in each case. Further, the insecticidal activity in test [3] turned out to be 100%.

Take `Cc1cc(C2=NCC(c3cc(Cl)c(Cl)c(Cl)c3)(C(F)(F)F)C2)ccc1C(=O)NC1CSC1` (centres unmarked) [Compound 1-10, 2-methyl-N-(thietan-3-yl)-4-[3-(3,4,5-trichlorophenyl)-3-(trifluoromethyl)-3,4-dihydro-2H-pyrrol-5-yl]benzamide]: the pest or weed control at 100 ppm in test [1], in test [2] and in test [4] was 100% throughout. Besides, the insecticidal activity in test [3] is listed as 100%.

Take `Cc1cc(C2=NCC(c3cc(Cl)c(Cl)c(Cl)c3)(C(F)(F)F)C2)ccc1C(=O)NC1C[S+]([O-])C1` (centres unmarked) [Compound 1-11, 2-Methyl-N-(1-oxidothietan-3-yl)-4-[3-(3,4,5-trichlorophenyl)-3-(trifluoromethyl)-3,4-dihydro-2H-pyrrol-5-yl]benzamide]: the pest or weed control at 100 ppm in test [1], in test [2] and in test [4] was 100% each time.

Take `Cc1cc(C2=NCC(c3cc(Cl)c(Cl)c(Cl)c3)(C(F)(F)F)C2)ccc1C(=O)NC1CS(=O)(=O)C1` (centres unmarked) [Compound 1-12, N-(1,1-Dioxidothietan-3-yl)-2-methyl-4-[3-(3,4,5-trichlorophenyl)-3-(trifluoromethyl)-3,4-dihydro-2H-pyrrol-5-yl]benzamide]: the pest or weed control at 100 ppm in test [1], in test [2] and in test [4] was 100% in each case. In test [3], this compound registered an insecticidal activity of 100%.

Turning to `O=C(NC1CSC1)c1ccc(C2=NCC(c3cc(C(F)(F)F)cc(C(F)(F)F)c3)(C(F)(F)F)C2)cc1C(F)(F)F` (centres unmarked) [Compound 1-16, 4-{3-[3,5-Bis(trifluoromethyl)phenyl}-3-(trifluoromethyl)-3,4-dihydro-2H-pyrrol-5-yl]-N-(thietan-3-yl)-2-(trifluoromethyl)benzamide], the pest or weed control at 100 ppm in test [1], in test [2] and in test [4] was 100% in each case. For the same compound, in test [3], the insecticidal activity was found to be 100%.

For the compound `Cc1cc(C2=NCC(c3cc(C(F)(F)F)cc(C(F)(F)F)c3)(C(F)(F)F)C2)ccc1C(=O)NC1CSC1` (centres unmarked) [Compound 1-19, 4-{3-[3,5-Bis(trifluoromethyl)phenyl]-3-(trifluoromethyl)-3,4-dihydro-2H-pyrrol-5-yl}-2-methyl-N-(thietan-3-yl)benzamide], the pest or weed control at 100 ppm in test [1], in test [2] and in test [4] was 100% throughout. For the same compound, in test [3], the insecticidal activity is reported as 100%.

On to `Cc1cc(C2=NCC(c3cc(C(F)(F)F)cc(C(F)(F)F)c3)(C(F)(F)F)C2)ccc1C(=O)NC1C[S+]([O-])C1` (centres unmarked) [Compound 1-20, 4-{3-[3,5-Bis(trifluoromethyl)phenyl]-3-(trifluoromethyl)-3,4-dihydro-2H-pyrrol-5-yl}-2-methyl-N-(1-oxidothietan-3-yl)benzamide], for which the pest or weed control at 100 ppm in test [1], in test [2] and in test [4] was 100% each time.

With `O=C(NC1CSC1)c1ccc(C2=NCC(c3cc(C(F)(F)F)cc(C(F)(F)F)c3)(C(F)(F)F)C2)cc1Br` (centres unmarked) [Compound 1-104, 4-{3-[3,5-Bis(trifluoromethyl)phenyl]-3-(trifluoromethyl)-3,4-dihydro-2H-pyrrol-5-yl}-2-bromo-N-(thietan-3-yl) benzamide], the pest or weed control at 100 ppm in test [1] and in test [2] was 100% each time.

`O=C(CNC(=O)c1ccc(C2=NCC(c3cc(Cl)c(Cl)c(Cl)c3)(C(F)(F)F)C2)cc1C(F)(F)F)NC1CSC1` (centres unmarked) [Compound 3-7]: the pest or weed control at 100 ppm in test [1], in test [2] and in test [4] was 100% throughout.

Turning to `O=C(CNC(=O)c1ccc(C2=NCC(c3cc(C(F)(F)F)cc(C(F)(F)F)c3)(C(F)(F)F)C2)cc1C(F)(F)F)NC1CSC1` (centres unmarked) [Compound 3-19, 4-{3-[3,5-Bis(trifluoromethyl)phenyl]-3-(trifluoromethyl)-3,4-dihydro-2H-pyrrol-5-yl}-N-[2-oxo-2-(thietan-3-ylamino)ethyl]-2-(trifluoromethyl)benzamide], the pest or weed control at 100 ppm in test [1] and in test [2] was 100% in each case.

`Cc1cc(C2=NCC(c3cc(Cl)cc(Cl)c3)(C(F)(F)F)C2)ccc1C(=O)NC1CS(=O)(=O)C1` (centres unmarked) [Compound T-1]: in test [5], the “Efficacy/day(s) of treatment” value worked out at 100%/4 dat.

For `Cc1cc(C2=NOC(c3cc(Cl)cc(Cl)c3)(C(F)(F)F)C2)ccc1C(=O)NC1CS(=O)(=O)C1` (centres unmarked) [ExNo A10 of WO 2009/080250], in test [5], the “Efficacy/day(s) of treatment” value came out at 0%/4 dat.
